Molecular target: human mGlu4 receptor (Homo sapiens (Human), UniProt Q14833)
Assay: Ca2+ mobilization in vitro assay on recombinant human mGlu4 expressed in HEK293 cells (PAM)
Type: cell-based
Details: for Emax: HEK293, maximal response in % of maximal stimulatory effect of saturating L-AP4, read-out: Eff. (%); for EC50: HEK293 cells, human mGlu4, in presence of EC20 of L-AP4, read-out: EC50 (nM) mGlu4PAM
Text: FIG. 1: Illustrates the experimental outline for mGlu4 PAM Ca^2+ mobilization screening assay and the determination of EC50 and % Emax values. […] A depression of the signal observed after addition of the EC20 concentration of L-AP4 was indicative of an inhibitory activity of the test compound.
Determination of EC50 Values Using a Ca2+ Mobilization In Vitro Assay on Recombinant Human mGlu4 Expressed in HEK293 Cells:
A monoclonal HEK-293 cell line stably transfected with a cDNA encoding for the human mGlu4 receptor was generated; for the work with mGlu4 Positive Allosteric Modulators (PAMs), a cell line with low receptor expression levels and low constitutive receptor activity was selected to allow the differentiation of agonistic versus PAM activity. Cells were cultured according to standard protocols (Freshney, 2000) in Dulbecco's Modified Eagle Medium with high glucose supplemented with 1 mM glutamine, 10% (vol/vol) heat-inactivated bovine calf serum, Penicillin/Streptomycin, 50 μg/ml hygromycin and 15 μg/ml blasticidin (all cell culture reagents and antibiotics from Invitrogen, Basel, Switzerland).
About 24 hrs before an experiment, 5×10^4 cells/well were seeded in poly-D-lysine coated, black/clear-bottomed 96-well plates. The cells were loaded with 2.5 μM Fluo-4AM in loading buffer (1×HBSS, 20 mM HEPES) for 1 hr at 37° C. and washed five times with loading buffer. The cells were transferred into a Functional Drug Screening System 7000 (Hamamatsu, Paris, France), and 11 half logarithmic serial dilutions of test compound at 37° C. were added and the cells were incubated for 10-30 min. with on-line recording of fluorescence. Following this pre-incubation step, the agonist (2S)-2-amino-4-phosphonobutanoic acid (L-AP4) was added to the cells at a concentration corresponding to EC20 with on-line recording of fluorescence; in order to account for day-to-day variations in the responsiveness of cells, the EC20 of L-AP4 was determined immediately ahead of each experiment by recording of a full dose-response curve of L-AP4.
Responses were measured as peak increase in fluorescence minus basal (i.e. fluorescence without addition of L-AP4), normalized to the maximal stimulatory effect obtained with saturating concentrations of L-AP4. Graphs were plotted with the % maximal stimulatory using XLfit, a curve fitting program that iteratively plots the data using Levenburg Marquardt algorithm. The single site competition analysis equation used was y=A+((B−A)/(1+((x/C)D))), where y is the % maximal stimulatory effect, A is the minimum y, B is the maximum y, C is the EC50, x is the log 10 of the concentration of the competing compound and D is the slope of the curve (the Hill Coefficient). From these curves the EC50 (drug concentration at which 50% of the maximal receptor activation was achieved), the Hill coefficient as well as the maximal response in % of the maximal stimulatory effect obtained with saturating concentrations of L-AP4 were calculated (see FIG. 1).

Sequence of human mGlu4 receptor (Q14833 33-912): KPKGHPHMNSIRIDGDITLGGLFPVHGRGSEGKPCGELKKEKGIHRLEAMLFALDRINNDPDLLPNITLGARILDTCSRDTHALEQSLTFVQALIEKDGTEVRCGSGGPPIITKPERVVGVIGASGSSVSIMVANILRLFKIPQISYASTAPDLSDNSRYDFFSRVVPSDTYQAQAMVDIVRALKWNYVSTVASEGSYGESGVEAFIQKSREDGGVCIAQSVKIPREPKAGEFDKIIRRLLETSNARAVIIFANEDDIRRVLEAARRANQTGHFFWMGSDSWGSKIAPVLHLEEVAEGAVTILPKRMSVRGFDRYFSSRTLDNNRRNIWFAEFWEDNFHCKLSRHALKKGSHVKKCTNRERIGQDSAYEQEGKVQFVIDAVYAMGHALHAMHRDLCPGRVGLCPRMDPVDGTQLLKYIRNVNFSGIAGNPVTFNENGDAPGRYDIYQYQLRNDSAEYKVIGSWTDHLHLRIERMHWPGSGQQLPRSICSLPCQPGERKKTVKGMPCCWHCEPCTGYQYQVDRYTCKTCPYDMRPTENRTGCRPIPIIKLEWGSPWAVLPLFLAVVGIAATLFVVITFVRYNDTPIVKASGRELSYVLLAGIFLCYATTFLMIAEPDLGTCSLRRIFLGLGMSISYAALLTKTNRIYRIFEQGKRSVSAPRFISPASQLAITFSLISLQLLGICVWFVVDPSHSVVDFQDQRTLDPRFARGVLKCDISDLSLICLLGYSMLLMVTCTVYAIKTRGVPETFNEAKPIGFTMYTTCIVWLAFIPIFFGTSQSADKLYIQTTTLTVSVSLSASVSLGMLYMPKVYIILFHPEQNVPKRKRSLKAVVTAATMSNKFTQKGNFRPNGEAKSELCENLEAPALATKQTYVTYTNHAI

SMILES | Emax [%] | EC50 [nM]
Cc1ccc(N2CCN3C(=O)N(c4c(F)cc(C#Cc5ccccc5)cc4F)C(=O)CC3(C)C2=O)nn1 (racemic) [Example 48, (9aRS)-7-[2,6-difluoro-4-(2-phenylethynyl)phenyl]-9a-methyl-2-(6-methylpyridazin-3-yl)-4,9-dihydro-3H-pyrazino[1,2-c]pyrimidine-1,6,8-trione] | 120 | 198
Cc1nccc(N2CCN3C(=O)N(c4c(F)cc(C#Cc5ccccc5)cc4F)C(=O)C[C@@]3(C)C2=O)n1 [Example 31, (9aS)-7-[2,6-difluoro-4-(2-phenylethynyl)phenyl]-9a-methyl-2-(2-methylpyrimidin-4-yl)-4,9-dihydro-3H-pyrazino[1,2-c]pyrimidine-1,6,8-trione] | 91 | 88
Cn1cc(N2CCN3C(=O)N(c4c(F)cc(C#Cc5ccccc5F)cc4F)C(=O)C[C@@]3(C)C2=O)cn1 [Example 111, (9aS)-7-[2,6-difluoro-4-[2-(2-fluorophenyl)ethynyl]phenyl]-9a-methyl-2-(1-methylpyrazol-4-yl)-4,9-dihydro-3H-pyrazino[1,2-c]pyrimidine-1,6,8-trione] | 120 | 56
Cc1ccc(CN2CCN3C(=O)N(c4c(F)cc(C#Cc5ccccc5)cc4F)C(=O)CC3(C)C2=O)cc1 (racemic) [Example 84, (9aRS)-7-[2,6-difluoro-4-(2-phenylethynyl)phenyl]-9a-methyl-2-(p-tolylmethyl)-4,9-dihydro-3H-pyrazino[1,2-c]pyrimidine-1,6,8-trione] | 87 | 117
C[C@@]12CC(=O)N(c3c(F)cc(C#Cc4ccccc4)cc3F)C(=O)N1CCN(c1ccc(Cl)nc1)C2=O [Example 21, (9aS)-2-(6-chloro-3-pyridyl)-7-[2,6-difluoro-4-(2-phenylethynyl)phenyl]-9a-methyl-4,9-dihydro-3H-pyrazino[1,2-c]pyrimidine-1,6,8-trione] | 142 | 73
Cc1cccc(N2CCN3C(=O)N(c4c(F)cc(C#Cc5ccccc5)cc4F)C(=O)CC3(C)C2=O)n1 (racemic) [Example 10, (9aRS)-7-[2,6-difluoro-4-(2-phenylethynyl)phenyl]-9a-methyl-2-(6-methyl-2-pyridyl)-4,9-dihydro-3H-pyrazino[1,2-c]pyrimidine-1,6,8-trione] | 127 | 163
C[C@@]12CC(=O)N(c3c(F)cc(C#Cc4ccccc4F)cc3F)C(=O)N1CCN(c1ccncn1)C2=O [Example 110, (9aS)-7-[2,6-difluoro-4-[2-(2-fluorophenyl)ethynyl]phenyl]-9a-methyl-2-pyrimidin-4-yl-4,9-dihydro-3H-pyrazino[1,2-c]pyrimidine-1,6,8-trione] | 90 | 31
CC12CC(=O)N(c3c(F)cc(C#Cc4ccccc4)cc3F)C(=O)N1CCN(c1ccncc1)C2=O (racemic) [Example 8, (9aRS)-7-[2,6-difluoro-4-(2-phenylethynyl)phenyl]-9a-methyl-2-(4-pyridyl)-4,9-dihydro-3H-pyrazino[1,2-c]pyrimidine-1,6,8-trione] | 118 | 129
Cn1cc(CCN2CCN3C(=O)N(c4c(F)cc(C#Cc5ccccc5)cc4F)C(=O)C[C@@]3(C)C2=O)cn1 [Example 101, (9aS)-7-[2,6-difluoro-4-(2-phenylethynyl)phenyl]-9a-methyl-2-[2-(1-methylpyrazol-4-yl)ethyl]-4,9-dihydro-3H-pyrazino[1,2-c]pyrimidine-1,6,8-trione] | 129 | 125
Cc1cccc(C)c1CN1CCN2C(=O)N(c3c(F)cc(C#Cc4ccccc4)cc3F)C(=O)CC2(C)C1=O (racemic) [Example 86, (9aRS)-7-[2,6-difluoro-4-(2-phenylethynyl)phenyl]-2-[(2,6-dimethylphenyl)methyl]-9a-methyl-4,9-dihydro-3H-pyrazino[1,2-c]pyrimidine-1,6,8-trione] | 118 | 68
C[C@@]12CC(=O)N(c3c(F)cc(C#Cc4ccccc4)cc3F)C(=O)N1CCN(c1ccncn1)C2=O [Example 27, (9aS)-7-[2,6-difluoro-4-(2-phenylethynyl)phenyl]-9a-methyl-2-pyrimidin-4-yl-4,9-dihydro-3H-pyrazino[1,2-c]pyrimidine-1,6,8-trione] | 136 | 39
C[C@@]12CC(=O)N(c3c(F)cc(C#Cc4ccccc4F)cc3F)C(=O)N1CCN(c1cccnc1)C2=O [Example 109, (9aS)-7-[2,6-difluoro-4-[2-(2-fluorophenyl)ethynyl]phenyl]-9a-methyl-2-(3-pyridyl)-4,9-dihydro-3H-pyrazino[1,2-c]pyrimidine-1,6,8-trione] | 85 | 56
C[C@@]12CC(=O)N(c3c(F)cc(C#Cc4ccccc4)cc3F)C(=O)N1CCN(c1cn[nH]c1)C2=O [Example 71, (9aS)-7-[2,6-difluoro-4-(2-phenylethynyl)phenyl]-9a-methyl-2-(1H-pyrazol-4-yl)-4,9-dihydro-3H-pyrazino[1,2-c]pyrimidine-1,6,8-trione] | 182 | 101
CC12CC(=O)N(c3c(F)cc(C#Cc4ccccc4)cc3F)C(=O)N1CCN(c1ccccn1)C2=O (racemic) [Example 4, (9aRS)-7-[2,6-difluoro-4-(2-phenylethynyl)phenyl]-9a-methyl-2-(2-pyridyl)-4,9-dihydro-3H-pyrazino[1,2-c]pyrimidine-1,6,8-trione] | 110 | 119
C[C@@]12CC(=O)N(c3c(F)cc(C#Cc4ccccc4)cc3F)C(=O)N1CCN(c1cnccn1)C2=O [Example 33, (9aS)-7-[2,6-difluoro-4-(2-phenylethynyl)phenyl]-9a-methyl-2-pyrazin-2-yl-4,9-dihydro-3H-pyrazino[1,2-c]pyrimidine-1,6,8-trione] | 107 | 46
Cc1ccc(N2CCN3C(=O)N(c4c(F)cc(C#Cc5ccccc5)cc4F)C(=O)CC3(C)C2=O)cn1 (racemic) [Example 16, (9aRS)-7-[2,6-difluoro-4-(2-phenylethynyl)phenyl]-9a-methyl-2-(6-methyl-3-pyridyl)-4,9-dihydro-3H-pyrazino[1,2-c]pyrimidine-1,6,8-trione] | 125 | 298
COc1ccc(N2CCN3C(=O)N(c4c(F)cc(C#Cc5ccccc5)cc4F)C(=O)C[C@@]3(C)C2=O)cn1 [Example 23, (9aS)-7-[2,6-difluoro-4-(2-phenylethynyl)phenyl]-2-(6-methoxy-3-pyridyl)-9a-methyl-4,9-dihydro-3H-pyrazino[1,2-c]pyrimidine-1,6,8-trione] | 114 | 61
CC(C)Oc1ncc(N2CCN3C(=O)N(c4c(F)cc(C#Cc5ccccc5)cc4F)C(=O)C[C@@]3(C)C2=O)cn1 [Example 40, (9aS)-7-[2,6-difluoro-4-(2-phenylethynyl)phenyl]-2-(2-isopropoxypyrimidin-5-yl)-9a-methyl-4,9-dihydro-3H-pyrazino[1,2-c]pyrimidine-1,6,8-trione] | 103 | 113
COCCCN1CCN2C(=O)N(c3c(F)cc(C#Cc4ccccc4)cc3F)C(=O)C[C@@]2(C)C1=O [Example 80, (9aS)-7-[2,6-difluoro-4-(2-phenylethynyl)phenyl]-2-(3-methoxypropyl)-9a-methyl-4,9-dihydro-3H-pyrazino[1,2-c]pyrimidine-1,6,8-trione] | 132 | 135
